# What was measured:
# [1] = test system: A375, A549, MCF7 and PC3 cells; assay: mRNA gene expression (transcriptome, DEG) analysis in four cell lines; format: cell-based, human; conditions: 10 μM, 6 h; common gene of four cell lines
# Protocol: Transcriptome analysis was performed to identify new indications of KRX-104130. For each of the four cell lines, human skin malignant melanoma cells (A375), human lung carcinoma cells (A549), human breast carcinoma cells (MCF7), and human prostate adenocarcinoma cells (PC3), 10 μM of KRX-104130 was administered for 6 h in the control and treatment groups. As an independent experiment was performed three times, considering the error, the average value was used for comparison. The change in gene expression levels was calculated by dividing the […]. Fold change (FC) was expressed as a positive or negative value when the gene expression value of the treatment group was greater or lower than that of the control group, respectively.
# Four cell lines were used for the cell culture: A375, A549, MCF7, and PC3, purchased from the American Type Culture Collection (ATCC, Rockville, MD, USA). The A375 and A549 cells were cultured in RPMI-1640 medium supplemented with 10% fetal bovine serum (FBS) and 1% penicillin-streptomycin-glutamine. The MCF7 cells were cultured in Dulbecco’s modified Eagle’s medium (DMEM) with 10% FBS and 1% penicillin-streptomycin-glutamine. The PC3 cells were cultured in RPMI with 10% FBS, 1% penicillin-streptomycin-glutamine, 1 mM sodium pyruvate, and 10 mM HEPES. KRX-104130 was synthesized at the Research Center for Medicinal Chemistry, Korea Research Institute of Chemical Technology (KRICT, Daejeon, Korea).
# After releasing the stock, the cells were used in the experiments and cultured for two weeks to stabilize. KRX-104130 was dissolved in dimethylsulfoxide (DMSO) to form a 10 mM stock solution and stored in a deep freezer (−80 °C). Six sheets were seeded in each of the four cell lines, three sheets of DMSO and KRX-104130 (DMSO × 3 and KRX-104130 × 3), and they were stored in an incubator for 24 h. Cells were plated at 1.1375 × 10^6 cells for A375, 1.3 × 10^6 cells for A549, 8.45 × 10^5 cells for MCF7, and 1.496 × 10^6 cells for PC3 under the culture conditions. After 24 h, DMSO and KRX-104130 were diluted 1000-fold in the medium, and the cells were treated with a final concentration of 0.1% DMSO and 10 μM KRX-104130. After 6 h, the medium was removed, and the cells were collected by treatment with 1 mL of TRIzol. After destroying the cells by pipetting, they were stored in a deep freezer (−80 °C).
# The total RNA samples were assessed using the Clariom™ S Assay Human Platform. cDNA was synthesized using the GeneChip WT (Whole Transcript) Amplification Kit as described by the manufacturer. The sense cDNA was then fragmented and biotin-labeled with terminal deoxynucleotidyl transferase (TdT) using the GeneChip WT Terminal labeling kit. Approximately 5.5 μg of labeled DNA target was hybridized to the Affymetrix GeneChip Array at 45 °C for 16 h. The hybridized arrays were washed and stained on a GeneChip Fluidics Station 450 and scanned using a GCS3000 scanner. Probe cell intensity data computation and CEL file generation were performed using Affymetrix® GeneChip Command Console® Software version 6.0+ (AGCC, www.thermofisher.com/kr/ko/home/life-science/microarray-analysis/microarray-analysis-instruments-software-services/microarray-analysis-software/affymetrix-genechip-command-console-software.html, accessed on 1 September 2021). The CEL file is a binary format that contains the intensity calculated result for the pixel values of the DAT file and is used to extract normalized intensity to be used for actual analysis in Affymetrix® Power Tools version 2.11.4 (APT, www.thermofisher.com/kr/en/home/life-science/microarray-analysis/microarray-analysis-partners-programs/affymetrix-developers-network/affymetrix-power-tools.html, accessed on 1 September 2021). […]
# [2] = Plasma pharmacokinetic profile in mice (I.V. and P.O.); conditions: for Tolerability / death after administration to mice: pharmacokinetic study; for AUC(0-t): AUC0–t, n=3; for Tolerability / death after administration to mice / AUC(0-t): mice
# [3] = test system: LDLR; assay: RT-qPCR analysis of LDLR mRNA expression in HepG2 cells; format: cell-based, human; conditions: HepG2 cells, 3, 10 and 30 μM, 24 h
# Protocol: (§1) To validate that KRX-104130 increased the LDLR gene expression through the DEG analysis, LDLR mRNA expression was investigated in KRX-104130–treated HepG2 cells.
# The mRNA expression levels of LDLR in the HepG2 cells were determined by real-time quantitative PCR (RT-qPCR) at the Cosmo Genetech (Sungsoo, Seoul, Korea). The total RNA was extracted from the cultured cells using an RNeasy mini kit (Qiagen, Valencia, CA, USA), and gene expression was analyzed by RT-qPCR using a Bio-Rad CFX96 system (Hercules, CA, USA). The mRNA expression levels were investigated three times in each sample treated with 0 μM, 3 μM, 10 μM, and 30 μM KRX-104130 for 24 h, and each result was obtained from three independent experiments, for 12 samples. For LDLR, the forward primer was 5′-CTCCCGCCAAGATCAAGAAA-3′, and the reverse primer was 5′-GAGATCTAGGGTGATGCCATTG-3′. The housekeeping gene, glyceraldehyde 3-phosphate dehydrogenase (GAPDH), was used as an internal control. The forward primer was 5′-TTGCCATCAATGACCCCTTCA-3′, and the reverse primer was 5′-CGC CCC ACT TGA TTT TGG A-3′. The PCR conditions for all genes were 40 cycles of pre-denaturation at 95 °C for 3 min, amplification at 62 °C for 30 s, and 95 °C for 10 s. The qPCR was performed using CFX manager (Version 3.1).
# [4] = target: T1, human recombinant MCH-1 receptor (Homo sapiens, UniProt Q99705); assay: Time-resolved fluorescence (TRF)-based MCHR1 receptor-binding assay with Eu-MCH; conditions: for inhibition at 10 µM: TRF MCHR1 binding, read-out: inhibition rate (%) at 10 μM; for IC50: TRF-based binding, 2 nM Eu-MCH
# T1 construct: purchased Euroscreen S.A. (PerkinElmer)
# T1 sequence (Q99705 whole entry): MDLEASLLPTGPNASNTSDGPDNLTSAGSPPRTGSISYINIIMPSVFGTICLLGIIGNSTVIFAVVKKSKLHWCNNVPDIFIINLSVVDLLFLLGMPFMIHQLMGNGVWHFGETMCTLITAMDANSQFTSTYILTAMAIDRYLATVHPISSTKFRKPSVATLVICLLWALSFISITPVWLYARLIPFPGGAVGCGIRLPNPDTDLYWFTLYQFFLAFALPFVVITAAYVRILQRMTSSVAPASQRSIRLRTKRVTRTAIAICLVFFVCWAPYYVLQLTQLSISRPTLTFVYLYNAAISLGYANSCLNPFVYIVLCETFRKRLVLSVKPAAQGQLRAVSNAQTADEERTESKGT
# Protocol: (§2) An in vitro time-resolved fluorescence (TRF)-based binding assay for MCHR1 was performed to identify the MCHR1 antagonist from the 19 predicted compounds selected through in silico screening. […] In addition, a patch clamp assay was performed to measure the cardiotoxicity of the five compounds. […] Consequently, of the five compounds, only KRX-104130 and KRX-104165 overcame cardiotoxicity.
# The receptor-binding affinities of the generated 19 compounds were determined by time-resolved fluorescence (TRF)-based receptor-binding assays using europium-labeled MCH (Eu-MCH) in 96-well AcroWell™ plates. The MCH labeled with europium at the N-1 position was supplied by the Wallac Labeling Service (PerkinElmer, Inc., Waltham, MA, USA). The human recombinant MCH-1 receptor membrane preparation (MCH-1/SLC1 membrane) was obtained from Euroscreen S.A. (PerkinElmer). The binding assay buffer contained 25 mM 4-(2-hydroxyethyl)-1-piperazineethanesulfonic acid (HEPES; pH 7.4), 5 mM MgCl2, 1 mM CaCl2, and 0.5% bovine serum albumin. Total binding was determined from the binding reaction in the presence of 2 nM Eu-MCH and 5 μg/unit MCH-1 receptor membrane for 90 min. Nonspecific Eu–MCH binding was defined in the presence of 0.5 µM unlabeled MCH. After incubation for 90 min, the plate was washed three times with 300 µL of ice-cold 25 mM HEPES buffer (pH 7.4) in an automatic vacuum filtration system. The Eu was dissociated from the bound ligand by the addition of 150 µL of DELFIA enhancement solution (Perkin Elmer) and incubated for 10 min with shaking. Fluorescence signals from dissociated Eu were measured using a multilabel reader (Envision, PerkinElmer) with an excitation wavelength (340 nm) and an emission wavelength (615 nm).
# [5] = target: T2, hERG channel (Homo sapiens, UniProt Q12809); assay: Patch clamp assay on HEK293-hERG cells; format: cell-based
# T2 construct: host or cells: HEK293
# T2 sequence (Q12809 whole entry): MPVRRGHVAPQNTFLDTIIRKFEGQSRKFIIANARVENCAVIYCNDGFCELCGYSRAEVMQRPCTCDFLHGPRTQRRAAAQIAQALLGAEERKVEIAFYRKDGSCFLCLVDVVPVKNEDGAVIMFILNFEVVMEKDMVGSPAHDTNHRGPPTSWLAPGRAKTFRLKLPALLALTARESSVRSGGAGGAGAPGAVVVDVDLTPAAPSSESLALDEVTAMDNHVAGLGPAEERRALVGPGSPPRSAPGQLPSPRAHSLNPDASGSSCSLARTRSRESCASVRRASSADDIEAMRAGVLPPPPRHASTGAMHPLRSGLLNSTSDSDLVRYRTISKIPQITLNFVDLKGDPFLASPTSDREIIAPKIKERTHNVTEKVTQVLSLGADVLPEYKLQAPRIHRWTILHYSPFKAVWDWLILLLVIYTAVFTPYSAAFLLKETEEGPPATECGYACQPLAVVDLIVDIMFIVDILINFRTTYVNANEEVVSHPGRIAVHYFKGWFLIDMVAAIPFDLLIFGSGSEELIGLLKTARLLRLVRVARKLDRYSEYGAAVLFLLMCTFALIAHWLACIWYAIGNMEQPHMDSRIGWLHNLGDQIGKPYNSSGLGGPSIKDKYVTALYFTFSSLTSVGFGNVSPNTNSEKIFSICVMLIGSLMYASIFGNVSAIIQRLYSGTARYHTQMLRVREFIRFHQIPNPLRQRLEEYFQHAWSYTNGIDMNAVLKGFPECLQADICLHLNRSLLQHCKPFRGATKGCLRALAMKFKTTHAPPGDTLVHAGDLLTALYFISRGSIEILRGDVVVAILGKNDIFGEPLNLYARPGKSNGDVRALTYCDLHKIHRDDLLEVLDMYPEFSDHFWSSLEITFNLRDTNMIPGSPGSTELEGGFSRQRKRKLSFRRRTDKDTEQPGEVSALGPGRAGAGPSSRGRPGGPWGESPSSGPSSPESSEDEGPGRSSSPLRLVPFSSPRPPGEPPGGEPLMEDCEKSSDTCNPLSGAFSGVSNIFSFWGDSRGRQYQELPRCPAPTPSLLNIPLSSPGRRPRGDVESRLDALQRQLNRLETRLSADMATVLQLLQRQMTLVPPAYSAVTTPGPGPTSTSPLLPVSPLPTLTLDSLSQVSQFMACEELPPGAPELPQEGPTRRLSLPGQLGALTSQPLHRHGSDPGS
# Protocol: as §2
# Patch clamp assays were performed on HEK293 cells stably expressing the hERG channel (HEK293-hERG cells; Genionics, Switzerland). When the cells were more than 80% confluent, they were freshly dislodged from flasks with 0.05% trypsin–EDTA for 1–2 min, spun down twice at 700× g, suspended into the extracellular solution (in mmol/L at 1.8 × 10^6 per mL: 137 NaCl, 4 KCl, 1 MgCl2, 1.8 CaCl2, 10 HEPES, and 10 glucose, pH 7.4, adjusted with NaOH), and dispensed into a patch clamp plate. The cell density was adjusted to 2–3 × 10^5 cells/mL. After dispensing, the cells were applied to the AutoPatch system (PatchXpress 7000A, Molecular Devices, Sunnyvale, CA, USA). The hERG currents were evoked by two voltage pulses at 3 s interval. The voltage pulse consisted of a 100-ms step to −30 mV, a conditioning prepulse (2 s duration, +25 mV or +45 mV), followed by a test pulse (2 s duration, −30 mV) from a holding potential of −70 mV. After a 3 s interval at −70 mV, a second pulse protocol was applied, consisting of a 100-ms step to −30 mV, a prepulse (2 s duration, +45 mV), followed by a test pulse (2 s duration, −30 mV). Leak currents were linearly subtracted, extrapolating the current elicited by a 100-ms step to −80 mV from a holding potential of −70 mV. The experiment was initiated with a buffer control in the absence of the drug to calculate the IC50. The test compound was applied at low to high concentrations, and the tail current was monitored continuously. The compound effects were tested using six concentrations in three-fold dilutions from 1 to 300 µM.
# [6] = test system: LDLR; assay: Western blot assay of LDLR protein expression in HepG2 cells; format: cell-based, human; conditions: HepG2 cells, 3, 10 and 30 μM
# Protocol: as §1
# The protein expression levels of LDLR in the HepG2 cells were determined by Western blot assay at Cosmo Genetech (Sungsoo, Seoul, Korea). Briefly, cell protein extracts were prepared using radioimmunoprecipitation assay buffer (Thermo Scientific, Pierce, Rockford, IL, USA). Twenty micrograms of protein lysate were separated by electrophoresis on a 10% sodium dodecyl-sulfate (SDS)-polyacrylamide gel electrophoresis (PAGE) gel (Bio-Rad, Hercules, CA, USA) and transferred to a nitrocellulose membrane (Hybond-C Extra; GE Healthcare, Piscataway, NJ, USA). Nonspecific binding was blocked with 5% milk and incubated with 1:1000 primary antibody (LDLR Rabbit-mAb, #ab52818, Abcam) overnight at 4 °C. The secondary antibodies (horseradish peroxidase [HRP]-conjugated mouse anti-rabbit IgG, #SC-2357, Santa Cruz) were diluted 1:3000 in a fresh blocking solution. Protein bands were detected using the SuperSignal West Femto Kit (Thermo Fisher Scientific Inc., Waltham, MA, USA).
# [7] = test system: methionine-choline-deficient (MCD) diet induced NASH mouse model; assay: MCD diet-induced NASH mouse model; format: in vivo, C57BL/6 mice; conditions: 30 mg/kg once-daily oral, 4 weeks
# Protocol: In addition, the MCD diet-induced histopathological changes, such as steatosis and fibrosis in liver tissues, were ameliorated by treatment with KRX-104130 (Figure 8D).
# Animal studies were carried out following the guidelines for animal care approved by the Institutional Animal Care and Use Committee at the Korea Research Institute of Chemical Technology (approval number: 2020-6A-10-01). Nine-week-old male C57BL/6 mice (Orient Bio, Sungnam, Korea) were randomly divided into three groups: a control group that was fed MCS diet, the NASH model group, and the treatment group that was fed an MCD diet with once-daily oral administration of vehicle (0.5% carboxymethyl cellulose) or 30 mg/kg KRX-104130. After 4 weeks of feeding, the mice were fasted overnight, and blood and tissue samples were obtained for biochemical and histological analyses. Liver TG levels and serum concentrations of liver injury markers, including ALT and AST, were determined using a colorimetric kit (MAK266, Sigma-Aldrich, St. Louis, MO, USA) or biochemical analyzer (AU480, Beckman Coulter, Atlanta, GA, USA), respectively, according to the manufacturer’s instructions. The left lobe of the liver was fixed in 10% neutralized buffered formalin and embedded in paraffin. Histological examination was performed using hematoxylin and eosin (H&E) and picrosirius red staining of 5 µm-thick sections.
smiles,measurement,setting,value
COc1nc2cc(F)c(F)cc2nc1NC(=O)NC1CCN(Cc2cc3ccccc3[nH]2)CC1 [KRX-104130],Fold change (FC) CCNE2,[1],−1.96
same,Fold change (FC) DNAJB9,[1],3.50
same,Fold change (FC) HERPUD1,[1],3.17
same,Fold change (FC) HSD17B7,[1],2.22
same,Fold change (FC) INSIG1,[1],2.85
same,Fold change (FC) LDLR,[1],2.79
same,Fold change (FC) MSMO1,[1],3.09
same,Fold change (FC) TIPARP,[1],3.98
same,Tolerability / death after administration to mice,[2],without specific abnormalities
same,Vd,"[2]; mouse, plasma, iv, 10 mg/kg",14.2 ± 0.72 L/kg
same,clearance,"[2]; mouse, plasma, iv, 10 mg/kg",36.8 mL/min/kg
same,half-life,"[2]; mouse, plasma, iv, 10 mg/kg",343 ± 61.8 min
same,AUC(0-t),"[2]; mouse, plasma, iv, 10 mg/kg, I.V.",4550 ± 220 ng·h/mL
same,bioavailability,"[2]; mouse, plasma, oral, 20 mg/kg",20.3%
same,Cmax,"[2]; mouse, plasma, po, 20 mg/kg",130 ± 50 ng/mL
same,Tmax,"[2]; mouse, plasma, po, 20 mg/kg",6.67 ± 2.31 h
same,half-life,"[2]; mouse, plasma, po, 20 mg/kg",613 min
same,AUC(0-t),"[2]; mouse, plasma, po, 20 mg/kg, P.O.",1720 ± 850 ng·h/mL
same,LDLR mRNA expression level,[3],LDLR upregulation in a concentration-dependent manner
same,inhibition at 10 µM,[4],97.1%
same,IC50,[4],20 nM
same,IC50,[5],13000 nM
same,LDLR protein level,[6],increased in a concentration-dependent manner
same,MCD diet-induced histopathological changes (steatosis and fibrosis in liver tissues),[7]; H&E and picrosirius red,ameliorated
same,Liver TG levels,[7]; mean ± S.E.M.,29.73 ± 1.54
same,Serum ALT,[7]; mean ± S.E.M.,163.67 ± 25.85
same,Serum AST,[7]; mean ± S.E.M.,170.5 ± 27.27
CCN(CC)CCN(C)c1cnc2cc(NC(=O)c3ccc(-c4ccc(Cl)cc4)cc3)ccc2n1 [KRX-104137],inhibition at 10 µM,[4],96%
same,IC50,[4],10 nM
same,IC50,[5],420 nM
COc1nc2cc(F)c(F)cc2nc1NC(=O)NC1CCN(Cc2ccc3[nH]ccc3c2)CC1 [KRX-104156],inhibition at 10 µM,[4],100%
same,IC50,[4],50 nM
same,IC50,[5],920 nM
COc1nc2cc(F)c(F)cc2nc1NC(=O)NC1CCN(Cc2ccc3[nH]ncc3c2)CC1 [KRX-104161],inhibition at 10 µM,[4],94.8%
same,IC50,[4],10 nM
same,IC50,[5],180 nM
COc1nc2cc(F)c(F)cc2nc1NC(=O)NC1CCN(Cc2cn(C(C)=O)c3ccccc23)CC1 [KRX-104165],Tolerability / death after administration to mice,[2],the mouse died immediately after administration
same,inhibition at 10 µM,[4],94.3%
same,IC50,[4],60 nM
same,IC50,[5],> 50000 nM
